Data from patent publication EP1513525B1, “USE OF MGLUR5 ANTAGONISTS FOR THE TREATMENT OF GERD” (AstraZeneca AB, priority 2002, dated 2003).

Tests used:
TLESRs [1] = experiment: Screening for compounds active against TLESR, Barostat model (nutrient meal followed by air infusion, intragastric pressure held at 10±1 mmHg); type: in vivo, Adult Labrador retrievers; conditions: inhibition of the number of TLESRs, infusion during 55 min
Protocol: (§1) Adult Labrador retrievers of both genders, trained to stand in a Pavlov sling, are used. Mucosa-to-skin esophagostomies are formed and the dogs are allowed to recover completely before any experiments are done.
(§2) In brief, after fasting for approximately 17 h with free supply of water, a multilumen sleeve/sidehole assembly (Dentsleeve, Adelaide, South Australia) is introduced through the esophagostomy to measure gastric, lower esophageal sphincter (LES) and esophageal pressures. The assembly is perfused with water using a low-compliance manometric perfusion pump (Dentsleeve, Adelaide, South Australia). An air-perfused tube is passed in the oral direction to measure swallows, and an antimony electrode monitored pH, 3 cm above the LES. All signals are amplified and acquired on a personal computer at 10 Hz.
Ten min after i.v. administration, a nutrient meal (10% peptone, 5% D-glucose, 5% Intralipid, pH 3.0) is infused into the stomach through the central lumen of the assembly at 100 ml/min to a final volume of 30 ml/kg. Immediately following the meal, air is insufflated at 40 ml/min. In an alternative model (Barostat model), the infusion of the nutrient meal is followed by air infusion at a rate of 500 ml/min until a intragastric pressure of 10±1 mmHg is obtained. […]

TLESRs [2] = experiment: Screening for compounds active against TLESR, standard model (nutrient meal followed by air insufflation at 40 ml/min); type: in vivo, Adult Labrador retrievers
Protocol: as §1, §2
When a baseline measurement free from fasting gastric/LES phase III motor activity has been obtained, placebo (0.9% NaCl) or test compound is administered intravenously (i.v., 0.5 ml/kg) in a foreleg vein. Ten min after i.v. administration, a nutrient meal (10% peptone, 5% D-glucose, 5% Intralipid, pH 3.0) is infused into the stomach through the central lumen of the assembly at 100 ml/min to a final volume of 30 ml/kg. Immediately following the meal, air is insufflated at 40 ml/min. In an alternative model (Barostat model), the infusion of the nutrient meal is followed by air infusion at a rate of 500 ml/min until a intragastric pressure of 10±1 mmHg is obtained. The pressure is then maintained at this level throughout the experiment using the infusion pump for further air infusion or for venting air from the stomach. The experimental time from start of nutrient infusion to end of air insufflation is 45 min. The procedure has been validated as a reliable means of triggering TLESRs.
TLESRs is defined as a decrease in lower esophageal sphincter pressure (with reference to intragastric pressure) at a rate of >1 mmHg/s. The relaxation should not be preceded by a pharyngeal signal ≤2s before its onset in which case the relaxation is classified as swallow-induced. The pressure difference between the LES and the stomach should be less than 2 mmHg, and the duration of the complete relaxation longer than 1 s.
2-Methyl-6-(phenylethynyl)-pyridine (MPEP) was prepared according to the procedure described by K. Sonogashira et al. in Tetrahedron Lett. (1975), 50, 4467-4470. After purification by column chromatography (SiO2), the hydrochloride salt (the hydrochloride salt of 2-methyl-6-(phenylethynyl)-pyridine is also commercially available from e.g. Tocris) was prepared by introducing HCl(g) to an ice-cooled Et2O-solution of the product. The hydrochloride salt of MPEP was tested on adult Labrador retrievers of both genders in accordance with the test model described above.
Inhibition of the number of TLESRs was calculated with regard to the five preceding control experiments for each dog, and the results as set out in Tables 1.1 and 1.2 below were achieved. Table 1.1 - Standard model

Row | SMILES | % INHIBITION ± SEM (N) (TLESRs [1]; dose 1.1 µmol/kg/h, N=4 dogs) | % INHIBITION ± SEM (N) (TLESRs [1]; dose 2.2 µmol/kg/h, N=2 dogs) | % INHIBITION ± SEM (N) (TLESRs [2]; inhibition of the number of TLESRs vs five preceding control experiments per dog, dose 1.4 µmol/kg i.v., N=4 dogs) | % INHIBITION ± SEM (N) (TLESRs [2]; inhibition of the number of TLESRs vs five preceding control experiments per dog, dose 4.3 µmol/kg i.v., N=4 dogs) | % INHIBITION ± SEM (N) (TLESRs [2]; inhibition of the number of TLESRs vs five preceding control experiments per dog, dose 8.7 µmol/kg i.v., N=3 dogs) | % INHIBITION ± SEM (N) (TLESRs [2]; inhibition of the number of TLESRs, dose 4 µmol/kg/h, infusion during 60 min, N=4 dogs) | % INHIBITION ± SEM (N) (TLESRs [2]; inhibition of the number of TLESRs, dose 6 µmol/kg/h, infusion during 60 min, N=2 dogs)
1 | COCc1cc(C#N)cc(-c2nc(-c3ccc(F)cn3)no2)c1 [3-[3-(5-fluoropyridin-2-yl)-1,2,4-oxadiazol-5-yl]-5-(methoxymethyl)benzonitrile] | 58 ± 11 (4) % | 83 ± 17 (2) % | – | – | – | – | –
2 | Cc1cccc(C#Cc2ccccc2)n1 [MPEP, 2-Methyl-6-(phenylethynyl)-pyridine] | – | – | 30 ± 5 (4) % | 57 ± 8 (4) % | 59 ± 11 (3) % | 32 ± 13 (4) % | 43 ± 3 (2) %
